Data on twelve compounds can be found in patent US20250145637A1, “SULFONAMIDE DERIVATIVE, PREPARATION METHOD THEREFOR AND MEDICAL USE THEREOF” (Jiangsu Hengrui Pharmaceuticals Co. Ltd., priority 2021, published 2025).

The target of test [1] is human KAT6A (Homo sapiens (Human), UniProt Q92794). The experiment in a line: KAT6 enzyme activity assay (AlphaScreen method), KAT6A. The following applies: inhibition of the enzyme human KAT6A. It is filed as biochemical. From the text: Test Example 1: KAT6 Enzyme Activity Assay (AlphaScreen Method)
I. Reagents and instrument • 1. KAT6A (customized by Chempartner) • 2. Ovalbumin (Sigma-Aldrich, A5378-5G) • 3. 2 M Tris-HCl solution, pH 7.8, sterile (Sangon, B548140-0500) • 4. 5 M NaCl solution (Sangon, B548121-0100) • 5. EDTA (0.5 M), pH 8.0, RNase-free (Thermofisher, AM9260G) • 6. Tween-20 (Sangon, A100777-0500) • 7. DTT, 1 M (Invitrogen, P2325) • 8. Acetyl coenzyme A (Ac-CoA, CAYMAN, Cat. No. 16160) • 9. Recombinant histone H3.1 biotinylated (human) (Active Motif 31696) • 10. 384-well plate, light gray (Perkin Elmer, Cat. No. 6005350) • 11. Anacardic acid (MCE, Cat. No. HY—N2020) • 12. AlphaScreen streptavidin donor beads, 5 mg (PerkinElmer, 6760002) • 13. AlphaScreen protein A acceptor beads, 5 mg (PerkinElmer, 6760137M) • 14. Acetylated-lysine antibody #9441 (CST 9441S) • 15. PHERA star microplate reader (BMG labtech) • II. Experimental method
a. 1× assay buffer: 100 mM Tris-HCl, pH 7.8; 15 mM NaCl; 1 mM EDTA; 0.01% tween-20; 1 mM DTT; 0.01% m/v ovalbumin.
b. KAT enzyme solution: 1.25 nM (final concentration), prepared in 1× assay buffer.
c. Mixed substrate of Ac-CoA and H3: a mixed substrate of 1000 nM (final concentration) Ac-CoA and 55 nM (final concentration) H3, prepared in 1× assay buffer.
d. Compounds: initial concentration of 100 μM, 3-fold dilution, 10 gradient concentrations. All compound concentrations were diluted 83-fold with 1× assay buffer for later use.
e. Assay reagent: 8 ng/μL (final concentration) AlphaScreen protein A acceptor beads, 8 ng/μL AlphaScreen streptavidin donor beads, 1:1500 diluted acetylated-lysine antibody, and 100 μM anacardic acid; prepared in 1× assay buffer.
(§1) 2. Experimental Procedure
a. The prepared enzyme solution was added to a 384-well plate at 3 μL/well, and 3 μL of 1× assay buffer was added to each well in columns 23 and 24 (Min).
b. 3 μL of compound solution was added to each well, and 3 μL of buffer was added to each Min well; 3 μL of DMSO solution was added to each well in columns 1 and 2 (Max) as controls. The plate was centrifuged, shaken for 2 min, and incubated at room temperature for 15 min.
c. The mixed substrate of Ac-CoA and H3 was added at 6 μL/well, and the plate was centrifuged, shaken for 2 min, and incubated at room temperature for 20 min.
d. The assay reagent was added at 6 μL/well, and the plate was centrifuged, shaken for 2 min, and incubated in the dark at room temperature for 120 min.
e. Plate reading was performed on the microplate reader, and AlphaScreen counts were recorded.
f. Plotting was performed using the Graphpad software, and the IC50 values of the compounds were calculated.
Background: Alpha assays give light when donor and acceptor beads are brought close together.

The subject of test [2] is H3K23 acetylation in U-2 OS cells. The experiment in a line: U2OS cell H3K23 acetylation IF assay (immunofluorescence). It counts as cell-based. The following applies: Homo sapiens; for IC50: 24 h incubation, read-out: H3K23 ac/IC50; for Emax: inhibition of H3K23 acetylation, 24 h, read-out: Maximum inhibition rate/Imax %. The protocol:
Test Example 3: U2OS Cell H3K23 Acetylation IF Assay (Immunofluorescence)
I. Reagents and Instruments
• 1. U-2 OS (ATCC HTB-96) • 2. Recombinant anti-histone H3 (acetyl K23) antibody (Abcam, ab177275) • 3. Goat anti-rabbit IgG (H+L), Superclonal™ recombinant secondary antibody, Alexa Fluor 488 (Thermofisher, A27034) • 4. Hoechst 33342 (Sigma-Aldrich, B2261-25MG) • 5. Assay plate, 96-well, black with clear bottom (Corning, 3603) • 6. Bovine serum albumin (BSA) (Sangon Biotech, A500023-0100) • 7. Methanol (GENERAL-REAGENT, G75851D) • 8. Tween-20 (Sangon, A100777-0500) • 9. Triton X-100 (Solarbio, T8200) • 10. PBS (Shanghai BasalMedia Technologies Co., Ltd., B320KJ) • 11. 20×PBS buffer (Sangon Biotech, B548117-0500) • 12. McCoy's 5A medium (Gibco, 16600082) • 13. 0.25% trypsin-EDTA (1×) (Gibco, 25200-072) • 14. Pen strep (Gibco, 15140-122) • 15. DPBS (1×) (Gibco, 14190-144) • 16. FBS (Gibco, 10091148) • 17. Automatic cell counter (Countstar, IC1000) • 18. Thermostatic incubator (Thermo, 1160) • 19. ImageXpress® Micro Confocal (Molecular Device)
a. Blocking buffer: PBS (Shanghai BasalMedia)+BSA (final concentration of 1%)+Triton X-100 (final concentration of 0.5%).
b. Wash buffer: PBS (20×PBS was diluted to 1×PBS)+Tween-20 (final concentration of 0.1%).
c. Primary antibody solution: Recombinant anti-histone H3 (acetyl K23) antibody was diluted in blocking buffer at a ratio of 1:1000.
d. Secondary antibody solutions: Goat anti-rabbit IgG (H+L), Superclonal™ recombinant secondary antibody, Alexa Fluor 488 was diluted in blocking buffer at a ratio of 1:1000, and Hoechst 33342 was diluted in blocking buffer at a ratio of 1:5000.
e. Compounds: initial concentration of 100 μM, 3-fold dilution, 9 gradient concentrations. All compound concentrations were diluted 500-fold with McCoy's 5A medium for later use.
as §1
2.1. Cell Treatment (Day One)
a. The state of U-2 OS cells was observed under a microscope to make sure that the cell confluence was about 90%.
b. The cell supernatant was discarded. The cells were rinsed with DPBS once, and the DPBS was removed. The cells were digested with a proper amount of trypsin and left to stand at room temperature or 37° C. for 5 min.
c. The digestion was stopped with an equal volume of medium containing 10% FBS, and the cell suspension was collected and centrifuged at 300 g for 3 min. The cells were suspended in a proper amount of fresh medium.
d. The resulting cell suspension was collected and cell counting was performed.
e. The cell suspension was diluted and plated at 9000 cells/50 μL/well.
f. The wells on the periphery were blocked with 100 μL of PBS.
g. The cell culture plates were incubated overnight in a 37° C., 5% carbon dioxide incubator.
2.2. Compound Addition (Day Two)
a. 50 μL of diluted compound was added to the cell supernatant (50 μL/well) in each cell plate.
b. After the addition, the cell plates were incubated in a 37° C., 5% carbon dioxide incubator for 24 h.
2.3. Immunofluorescence Staining and Measurement (Day Three to Day Four)
a. After the 24-hour incubation, the cell plates were removed from the incubator. The medium was discarded, and plates were fixed with pre-cooled methanol at room temperature for 10 min.
b. The fixation buffer was discarded, and the plates were quickly washed with wash buffer 3 times and then slowly washed 3 times (5 min/wash).
c. The wash buffer was discarded, and blocking buffer was added. The plates were incubated at room temperature for 60 min.
d. The blocking buffer was discarded, and the prepared primary antibody solution was added. The plates were incubated overnight at 4° C.
e. The primary antibody solution was discarded, and the prepared secondary antibody solution was added. The plates were incubated at room temperature for 60 min.
f. The secondary antibody solution was discarded, and the plates were quickly washed with wash buffer 3 times and then slowly washed 5 times (5 min/wash).
g. The plates were tested on ImageXpress® Micro Confocal.
h. […]

Chain of human KAT6A (Q92794 whole entry): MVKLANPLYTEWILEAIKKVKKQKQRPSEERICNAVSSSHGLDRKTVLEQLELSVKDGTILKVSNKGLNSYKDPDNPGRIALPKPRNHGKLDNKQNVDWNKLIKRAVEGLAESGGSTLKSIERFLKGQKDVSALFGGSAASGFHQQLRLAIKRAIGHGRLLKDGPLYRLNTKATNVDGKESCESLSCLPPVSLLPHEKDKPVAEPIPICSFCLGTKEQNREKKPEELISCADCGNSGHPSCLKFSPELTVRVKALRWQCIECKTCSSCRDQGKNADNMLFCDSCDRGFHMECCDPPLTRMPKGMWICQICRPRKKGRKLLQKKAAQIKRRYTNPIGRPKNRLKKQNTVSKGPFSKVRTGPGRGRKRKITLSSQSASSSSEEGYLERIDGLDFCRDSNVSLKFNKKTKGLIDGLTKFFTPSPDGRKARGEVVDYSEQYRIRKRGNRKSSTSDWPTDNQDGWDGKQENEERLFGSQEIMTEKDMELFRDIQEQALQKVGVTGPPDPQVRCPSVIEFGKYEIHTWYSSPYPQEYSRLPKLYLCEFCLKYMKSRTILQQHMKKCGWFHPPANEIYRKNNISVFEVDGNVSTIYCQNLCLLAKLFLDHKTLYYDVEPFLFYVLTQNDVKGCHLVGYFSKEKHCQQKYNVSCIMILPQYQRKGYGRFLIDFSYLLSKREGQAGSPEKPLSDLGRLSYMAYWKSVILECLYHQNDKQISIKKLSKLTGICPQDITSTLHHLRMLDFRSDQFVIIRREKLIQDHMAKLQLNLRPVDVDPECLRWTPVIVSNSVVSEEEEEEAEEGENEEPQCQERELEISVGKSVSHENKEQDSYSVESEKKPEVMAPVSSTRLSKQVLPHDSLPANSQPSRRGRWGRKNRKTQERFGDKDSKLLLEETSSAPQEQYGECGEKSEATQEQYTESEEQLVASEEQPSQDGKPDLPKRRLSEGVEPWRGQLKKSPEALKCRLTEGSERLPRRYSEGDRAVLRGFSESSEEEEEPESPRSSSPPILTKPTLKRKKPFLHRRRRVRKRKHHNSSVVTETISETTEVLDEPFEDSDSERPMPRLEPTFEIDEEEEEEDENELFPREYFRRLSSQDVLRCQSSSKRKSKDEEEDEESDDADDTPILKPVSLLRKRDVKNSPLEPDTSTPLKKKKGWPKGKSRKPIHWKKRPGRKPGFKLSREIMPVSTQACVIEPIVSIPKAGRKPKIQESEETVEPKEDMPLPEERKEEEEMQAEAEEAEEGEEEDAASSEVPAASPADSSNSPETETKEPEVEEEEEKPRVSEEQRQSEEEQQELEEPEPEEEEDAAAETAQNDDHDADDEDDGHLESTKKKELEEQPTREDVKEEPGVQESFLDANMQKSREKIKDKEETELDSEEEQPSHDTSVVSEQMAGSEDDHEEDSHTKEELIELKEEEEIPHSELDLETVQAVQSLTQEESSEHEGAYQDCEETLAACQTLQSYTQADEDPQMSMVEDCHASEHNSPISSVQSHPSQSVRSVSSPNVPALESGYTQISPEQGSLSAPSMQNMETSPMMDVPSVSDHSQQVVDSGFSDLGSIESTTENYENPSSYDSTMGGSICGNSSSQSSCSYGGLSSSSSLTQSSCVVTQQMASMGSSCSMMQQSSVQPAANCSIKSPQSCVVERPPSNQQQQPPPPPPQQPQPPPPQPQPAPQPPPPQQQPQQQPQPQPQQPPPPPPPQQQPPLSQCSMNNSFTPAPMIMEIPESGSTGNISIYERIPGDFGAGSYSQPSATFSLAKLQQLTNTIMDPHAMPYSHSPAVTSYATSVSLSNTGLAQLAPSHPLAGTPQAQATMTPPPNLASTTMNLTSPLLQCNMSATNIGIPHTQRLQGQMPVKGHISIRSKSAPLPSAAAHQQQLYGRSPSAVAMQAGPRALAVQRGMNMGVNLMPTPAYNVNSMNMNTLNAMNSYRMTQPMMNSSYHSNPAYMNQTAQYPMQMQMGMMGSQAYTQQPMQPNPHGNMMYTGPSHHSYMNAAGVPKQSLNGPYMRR

In test [1], `COc1cccc(OC)c1S(=O)(=O)Nc1noc2cc(C3CCCO3)c3c(c12)OCC3` (stereo not drawn) [Compound 26, 2,6-dimethoxy-N-(4-(tetrahydrofuran-2-yl)-2,3-dihydrobenzofuro[7,6-d]isoxazol-8-yl)benzenesulfonamide] gave an IC50 of 12.2 nM.

As to `COc1cc(N(C)C)ccc1S(=O)(=O)Nc1noc2cc(Cn3cccn3)c3c(c12)OCCC3` [Compound 11, N-(5-((1H-pyrazol-1-yl)methyl)-3,4-dihydro-2H-chromeno[8,7-d]isoxazol-9-yl)-4-(dimethylamino)-2-methoxybenzenesulfonamide], the IC50 is 2.1 nM in test [2] and 1.6 nM in test [1]. Besides, in test [2], the Emax was determined as 103%.

As for `COc1cc2c(cc1S(=O)(=O)Nc1noc3cc(Cn4cccn4)c4c(c13)OCC4)OCC2` [Compound 19, N-(4-((1H-pyrazol-1-yl)methyl)-2,3-dihydrobenzofuro[7,6-d]isoxazol-8-yl)-5-methoxy-2,3-dihydrobenzofuran-6-sulfonamide], the IC50 in test [1] was 2.7 nM.

`COc1cccc(OC)c1S(=O)(=O)Nc1noc2cc([C@H]3CCCO3)c3c(c12)OCC3` [Compound 26-1, (R)-2,6-dimethoxy-N-(4-(tetrahydrofuran-2-yl)-2,3-dihydrobenzofuro[7,6-d]isoxazol-8-yl)benzenesulfonamide] yielded an IC50 in test [1] of 5.2 nM.

In test [1], `COc1cccc(C)c1S(=O)(=O)Nc1noc2cc(Cn3cccn3)c3c(c12)OCC3` [Compound 17, N-(4-((1H-pyrazol-1-yl)methyl)-2,3-dihydrobenzofuro[7,6-d]isoxazol-8-yl)-2-methoxy-6-methylbenzenesulfonamide] showed an IC50 of 10.5 nM.

Take `COc1cc(C)ccc1S(=O)(=O)Nc1noc2cc(Cn3cccn3)c3c(c12)OCC3` [Compound 22, N-(4-((1H-pyrazol-1-yl)methyl)-2,3-dihydrobenzofuro[7,6-d]isoxazol-8-yl)-2-methoxy-4-methylbenzenesulfonamide]: in test [2], the IC50 was 2.9 nM and the Emax was 105%. The IC50 in test [1] was 4.7 nM.

Compound `COc1ccc(C)cc1S(=O)(=O)Nc1noc2cc(Cn3cccn3)c3c(c12)OCC3` [Compound 18, N-(4-((1H-pyrazol-1-yl)methyl)-2,3-dihydrobenzofuro[7,6-d]isoxazol-8-yl)-2-methoxy-5-methylbenzenesulfonamide] registered an IC50 in test [1] of 12.5 nM.

For the compound `COc1ccccc1S(=O)(=O)Nc1noc2cc(Cn3cccn3)c3c(c12)OCCO3` [Compound 4, N-(5-((1H-pyrazol-1-yl)methyl)-2,3-dihydro-[1,4]dioxino[2′,3′:5,6]benzo[1,2-d]isoxazol-9-yl)-2-methoxybenzenesulfonamide], the IC50 came to 1.5 nM in test [2] and 4.2 nM in test [1]. For the same compound, the Emax in test [2] stood at 106%.

In turn, `O=S(=O)(Nc1noc2cc(Cn3cccn3)c3c(c12)OCCC3)c1cccc2c1OCC2` [Compound 12, N-(5-((1H-pyrazol-1-yl)methyl)-3,4-dihydro-2H-chromeno[8,7-d]isoxazol-9-yl)-2,3-dihydrobenzofuran-7-sulfonamide] yielded an IC50 in test [1] of 12.5 nM.

Regarding `CCOc1cc(C)ccc1S(=O)(=O)Nc1noc2cc(Cn3cccn3)c3c(c12)OCC3` [Compound 16, N-(4-((1H-pyrazol-1-yl)methyl)-2,3-dihydrobenzofuro[7,6-d]isoxazol-8-yl)-2-ethoxy-4-methylbenzenesulfonamide], in test [1], the IC50 came out at 1.9 nM.

`COc1cc2c(cc1S(=O)(=O)Nc1noc3cc(Cn4cccn4)c4c(c13)OCC4)CCC2` [Compound 15, N-(4-((1H-pyrazol-1-yl)methyl)-2,3-dihydrobenzofuro[7,6-d]isoxazol-8-yl)-6-methoxy-2,3-dihydro-1H-indene-5-sulfonamide] displayed an IC50 in test [1] of 1.2 nM.

`CCc1ccc(S(=O)(=O)Nc2noc3cc(Cn4cccn4)c4c(c23)OCCC4)c(OC)c1` [Compound 13, N-(5-((1H-pyrazol-1-yl)methyl)-3,4-dihydro-2H-chromeno[8,7-d]isoxazol-9-yl)-4-ethyl-2-methoxybenzenesulfonamide] yielded an IC50 in test [1] of 0.3 nM.
